Measurements: patent US20070287719A1, “Salts, Prodrugs and Formulations of 1-[5-(4-Amino-7-Isopropyl-7H-Pyrrolo[2,3-D]Pyrimidine-5-Carbonyl)-2-Methoxy-Phenyl]-3-(2,4-Dichloro-Phenyl)-Urea” (Pfizer Inc, priority 2005, published 2007)
Each block holds one molecule with its values, some of them ahead of it.

Tests used:
[1] = In vitro dissolution test in Model Fasted Duodenal (MFD) solution; format: physicochemical; conditions: 1.8 mL MFD; 0.36 mg free base active agent or 1.44 mg active agent in spray dry dispersion
Experimental: The compositions comprising the active agent and concentration-enhancing polymer provide enhanced concentration of the dissolved inhibitor in in vitro dissolution tests. It has been determined that enhanced drug concentration in in vitro dissolution tests in Model Fasted Duodenal (MFD) solution or Phosphate Buffered Saline (PBS) is a good indicator of in vivo performance and bioavailability. An appropriate PBS solution is an aqueous solution comprising 20 mM sodium phosphate (Na2HPO4), 47 mM potassium phosphate (KH2PO4), 87 mM sodium chloride (NaCl), and 0.2 mM potassium chloride (KCl), adjusted to pH 6.5 with sodium hydroxide (NaOH). An appropriate MFD solution is the same PBS solution wherein additionally is present 7.3 mM sodium taurocholic acid and 1.4 mM of 1-palmitoyl-2-oleyl-sn-glycero-3-phosphocholine. In particular, a composition of the present invention can be dissolution-tested by adding it to MFD or PBS solution and agitating to promote dissolution. […]
The concentration of dissolved inhibitor is typically measured as a function of time by sampling the test medium and plotting inhibitor concentration in the test medium vs. time so that the MDC can be ascertained. The MDC is taken to be the maximum value of dissolved inhibitor measured over the duration of the test. […]

[2] = Plasma pharmacokinetics after oral dosing, rat; format: in vivo; conditions: Rat (n = 4), 100 mg Active Agent/kg
Experimental: (§1) Alternatively, the compositions of the present invention, when dosed orally to a human or other mammal, provide an AUC inhibitor concentration in the blood (herein referred to as a plasma AUC) that is at least about 4 fold that observed when a control composition comprising all equivalent quantity of undispersed drug is dosed. It is noted that such compositions can also be said to have a relative bioavailability of about 4. Preferably, the compositions of the present invention, when dosed orally to a human or other mammal, provide an AUC inhibitor concentration in the blood that is at least about 6 fold, more preferably at least about 10 fold, and even more preferably at least about 20 fold that observed when a control composition comprising an equivalent quantity of undispersed drug is dosed. […] An exemplary dosing vehicle would be a suspension solution of water containing 0.5 wt percent […] (such as METHOCEL) and 0.16 wt percent of the surfactant polyoxyethylene 20 sorbitan monooleate (such as TWEEN 80). Thus, the compositions of the present invention can be evaluated in either in vitro or in vivo tests, or both. […]
(§2) Relative bioavailability of inhibitor in the dispersions of the present invention can be tested in vivo in animals or humans using conventional methods for making such a determination. […] In an in vivo crossover study a “test composition” of inhibitor and polymer is dosed to half a group of test subjects and, after an appropriate washout period (e.g., one week) the same subjects are dosed with a “control composition” that comprises an equivalent quantity of inhibitor as the “test composition” (but with no polymer present). […] The relative bioavailability is measured as the concentration in the blood (serum or plasma) versus time area under the curve (AUC) determined for the test group divided by the AUC in the blood provided by the control composition. Preferably, this test/control ratio is determined for each subject, and then the ratios are averaged over all subjects in the study. […]

[3] = Plasma pharmacokinetics after oral dosing, dog; format: in vivo; conditions: Dog (n = 3), 30 mg Active Agent/kg
Experimental: as §1, §2

[4] = molecular target: T1, fully activated recombinant GST-TIE2 construct (Homo sapiens, UniProt Q02763); assay: Tie-2 tyrosine kinase inhibition, GST-Tie-2 fusion protein, PGT plate ELISA; format: biochemical
T1 construct: made in house; host or cells: insect cells (baculovirus)
T1 sequence (Q02763 23-1124): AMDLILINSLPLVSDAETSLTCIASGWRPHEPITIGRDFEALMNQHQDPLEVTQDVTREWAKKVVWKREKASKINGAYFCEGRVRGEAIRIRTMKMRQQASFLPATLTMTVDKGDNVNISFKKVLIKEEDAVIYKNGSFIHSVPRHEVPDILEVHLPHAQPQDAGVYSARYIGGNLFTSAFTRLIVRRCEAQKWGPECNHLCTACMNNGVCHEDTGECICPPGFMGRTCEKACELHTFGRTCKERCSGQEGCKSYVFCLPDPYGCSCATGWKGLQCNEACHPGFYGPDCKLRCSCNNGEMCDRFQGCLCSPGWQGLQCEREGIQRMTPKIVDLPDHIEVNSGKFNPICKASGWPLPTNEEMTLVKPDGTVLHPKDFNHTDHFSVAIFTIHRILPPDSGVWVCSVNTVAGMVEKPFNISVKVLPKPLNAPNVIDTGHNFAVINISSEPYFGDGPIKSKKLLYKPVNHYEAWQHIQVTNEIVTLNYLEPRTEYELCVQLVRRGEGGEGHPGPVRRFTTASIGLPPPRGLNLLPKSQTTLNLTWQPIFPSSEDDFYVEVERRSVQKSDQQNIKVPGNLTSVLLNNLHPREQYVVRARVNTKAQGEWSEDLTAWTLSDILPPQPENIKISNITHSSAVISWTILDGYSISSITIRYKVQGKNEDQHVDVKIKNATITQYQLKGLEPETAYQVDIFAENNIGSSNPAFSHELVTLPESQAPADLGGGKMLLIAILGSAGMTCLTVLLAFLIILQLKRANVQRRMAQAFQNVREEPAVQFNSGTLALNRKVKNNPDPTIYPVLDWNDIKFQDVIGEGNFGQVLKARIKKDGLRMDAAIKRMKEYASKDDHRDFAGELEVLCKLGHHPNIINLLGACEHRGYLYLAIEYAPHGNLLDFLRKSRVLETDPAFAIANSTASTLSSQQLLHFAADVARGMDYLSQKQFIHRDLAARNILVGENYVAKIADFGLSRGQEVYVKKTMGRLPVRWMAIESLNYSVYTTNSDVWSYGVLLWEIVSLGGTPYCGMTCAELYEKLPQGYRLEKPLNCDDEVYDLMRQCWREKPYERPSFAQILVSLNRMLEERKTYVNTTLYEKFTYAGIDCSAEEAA
Experimental: (§3) The crystalline and non-crystalline forms and formulations of 1-[5-(4-Amino-7-isopropyl-7H-pyrrolo[2,3-d[pyrimidine-5-carbonyl)-2-methoxy-phenyl]-3-(2 4-dichloro-phenyl)-urea are selective inhibitors of the tyrosine kinases, Tie-2, TrkA and related family member TrkB. The potentcy of these forms and formulations of the present invention at the tyrosine kinases may be determined using the following assays.
Inhibition of Tie-2 tyrosine kinase activity is measured in 96-well Maxisorp plates (Nunc) coated with poly-Glu-Tyr (PGT 4:1 Sigma) by the addition of 100 μL/well of a 25 μg/mL solution of PGT in PBS. Plates are incubated at 37° C. overnight, and transferred to 4° C. until use. Prior to compound testing, appropriate dilutions of compounds are made in 96-well polypropylene plates. […] GST-Tie-2 would be previously isolated from insect cells infected with GST-Tie-2 baculoviruses, and used at concentrations determined to provide OD450 signals of approximately 1.0 in the presence of ATP and the absence of chemical inhibitors. […] The bound HRP-PY20 antibody can be detected by the addition of 70 μL/well TMB microwell substrate (KPL), and color development terminated by the addition of an equal volume of 0.9 M H2SO4. The background signal from wells lacking ATP can be subtracted from all ATP-stimulated wells, and IC50 values calculated.

[5] = molecular target: inactive (unphosphorylated) TIE2 kinase (Homo sapiens, UniProt Q02763); assay: Inhibition of inactive TIE2 kinase; format: biochemical
inactive (unphosphorylated) TIE2 kinase, sequence (Q02763 23-1124): as above
Description: as §3

[6] = molecular target: T2, recombinant human erbB-TIE2 chimeric receptor overexpressed in C6 rat glioma cells (Homo sapiens, UniProt Q02763); assay: Cell-based TIE-2 kinase activity of chimeric receptor
T2 construct: erbB extracellular domain with TIE2 intracellular domain; extracellular domain of human EGFR (erbB); expressed in transfected cells; host or cells: C6 rat glioma cells
T2 sequence (Q02763 770-1124 limits assumed, change not shown): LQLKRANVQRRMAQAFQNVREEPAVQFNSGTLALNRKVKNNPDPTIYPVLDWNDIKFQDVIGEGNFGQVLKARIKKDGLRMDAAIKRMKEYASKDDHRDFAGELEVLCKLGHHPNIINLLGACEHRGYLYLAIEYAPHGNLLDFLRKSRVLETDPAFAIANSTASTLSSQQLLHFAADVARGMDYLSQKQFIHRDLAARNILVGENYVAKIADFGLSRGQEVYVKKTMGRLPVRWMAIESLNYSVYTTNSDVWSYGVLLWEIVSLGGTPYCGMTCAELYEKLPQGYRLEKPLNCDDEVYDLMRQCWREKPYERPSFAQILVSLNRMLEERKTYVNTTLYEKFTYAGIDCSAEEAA

[7] = Hygroscopicity of salt forms; format: physicochemical; conditions: at 90 percent relative humidity at ambient temperature

SMILES: COc1ccc(C(=O)c2cn(C(C)C)c3ncnc(N)c23)cc1NC(=O)Nc1ccc(Cl)cc1Cl.CS(=O)(=O)O [Example 2, 1-[5-(4-Amino-7-isopropyl-7H-pyrrolo[2,3-d]pyrimidine-5-carbonyl)-2-methoxy-phenyl]-3-(2,4-dichloro-phenyl)-urea•Mesylate (Form B)]
Hygroscopicity [7]: 7.9 percent (by weight)

SMILES: COc1ccc(C(=O)c2cn(C(C)C)c3ncnc(N)c23)cc1NC(=O)Nc1ccc(Cl)cc1Cl.Cc1ccc(S(=O)(=O)O)cc1 [Example 9, 1-[5-(4-Amino-7-isopropyl-7H-pyrrolo[2,3-d]pyrimidine-5-carbonyl)-2-methoxy-phenyl]-3-(2,4-dichloro-phenyl)-urea•Tosylate]
Hygroscopicity [7]: 1.1 percent (by weight)

SMILES: COc1ccc(C(=O)c2cn(C(C)C)c3ncnc(N)c23)cc1NC(=O)Nc1ccc(Cl)cc1Cl.O=S(=O)(O)c1ccccc1 [Example 8, 1-[5-(4-Amino-7-isopropyl-7H-pyrrolo[2,3-d]pyrimidine-5-carbonyl)-2-methoxy-phenyl]-3-(2,4-dichloro-phenyl)-urea•Besylate]
Hygroscopicity [7]: 2.0 percent (by weight)

Results, then the molecule that gave them:

AUC (aqueous concentration versus time) [1]: 100 µg·min/mL | MDC (Maximum Drug Concentration) [1]: 3 µg/mL | Cmax [2]: 191 ± 153 ng/mL | Tmax [2]: 4.5 ± 1 h | AUC(0-t) ([2]; read-out: AUC0-24): 1300 ± 940 ng·h/mL | Cmax [3]: 347 ± 556 ng/mL | Tmax [3]: 4 ± 2 h | AUC(0-t) ([3]; read-out: AUC0-24): 2810 ± 4550 ng·h/mL | IC50 [4]: 280 nM | Ki [5]: 23 nM | IC50 [6]: 4.67 nM
SMILES: COc1ccc(C(=O)c2cn(C(C)C)c3ncnc(N)c23)cc1NC(=O)Nc1ccc(Cl)cc1Cl [1-[5-(4-amino-7-isopropyl-7H-pyrrolo[2,3-d]pyrimidine-5-carbonyl)-2-methoxy-phenyl]-3-(2,4-dichloro-phenyl)-urea]

Hygroscopicity [7]: 1.6 percent (by weight)
SMILES: COc1ccc(C(=O)c2cn(C(C)C)c3ncnc(N)c23)cc1NC(=O)Nc1ccc(Cl)cc1Cl.CS(=O)(=O)O [Example 3, 1-[5-(4-Amino-7-isopropyl-7H-pyrrolo[2,3-d]pyrimidine-5-carbonyl)-2-methoxy-phenyl]-3-(2,4-dichloro-phenyl)-urea•Mesylate (Polymorph A)]

Hygroscopicity [7]: 0.8 percent (by weight)
SMILES: COc1ccc(C(=O)c2cn(C(C)C)c3ncnc(N)c23)cc1NC(=O)Nc1ccc(Cl)cc1Cl.O=P(O)(O)O [Example 1, 1-[5-(4-Amino-7-isopropyl-7H-pyrrolo[2,3-d]pyrimidine-5-carbonyl)-2-methoxy-phenyl]-3-(2,4-dichloro-phenyl)-urea•Phosphate]
